Results reported in BindingDB's records for patent US11111233 (Shenzhen Targetrx, 2021).

How the values were obtained:
[1] = biological target: Epidermal growth factor receptor [T790M,L858R] (Homo sapiens, UniProt P00533, L858R/T790M); assay: Kinase Inhibition Assay
Method: (§1) Then, it was diluted in DMSO with a 3-fold series gradient dilution for 10 times. […] The corresponding substrate and ATP were added and reacted at room temperature for 20 minutes (in which a negative and a positive control were set: the negative control is blank and the positive control is erlotinib). […] The inhibitions of the enzyme activity by the compounds at different concentrations were then fitted using Graphpad 5.0 software according to the four-parameter equation, and the IC50 values were calculated.

[2] = biological target: Epidermal growth factor receptor (Homo sapiens, UniProt P00533); assay: Kinase Inhibition Assay
Chain of Epidermal growth factor receptor (P00533 whole entry): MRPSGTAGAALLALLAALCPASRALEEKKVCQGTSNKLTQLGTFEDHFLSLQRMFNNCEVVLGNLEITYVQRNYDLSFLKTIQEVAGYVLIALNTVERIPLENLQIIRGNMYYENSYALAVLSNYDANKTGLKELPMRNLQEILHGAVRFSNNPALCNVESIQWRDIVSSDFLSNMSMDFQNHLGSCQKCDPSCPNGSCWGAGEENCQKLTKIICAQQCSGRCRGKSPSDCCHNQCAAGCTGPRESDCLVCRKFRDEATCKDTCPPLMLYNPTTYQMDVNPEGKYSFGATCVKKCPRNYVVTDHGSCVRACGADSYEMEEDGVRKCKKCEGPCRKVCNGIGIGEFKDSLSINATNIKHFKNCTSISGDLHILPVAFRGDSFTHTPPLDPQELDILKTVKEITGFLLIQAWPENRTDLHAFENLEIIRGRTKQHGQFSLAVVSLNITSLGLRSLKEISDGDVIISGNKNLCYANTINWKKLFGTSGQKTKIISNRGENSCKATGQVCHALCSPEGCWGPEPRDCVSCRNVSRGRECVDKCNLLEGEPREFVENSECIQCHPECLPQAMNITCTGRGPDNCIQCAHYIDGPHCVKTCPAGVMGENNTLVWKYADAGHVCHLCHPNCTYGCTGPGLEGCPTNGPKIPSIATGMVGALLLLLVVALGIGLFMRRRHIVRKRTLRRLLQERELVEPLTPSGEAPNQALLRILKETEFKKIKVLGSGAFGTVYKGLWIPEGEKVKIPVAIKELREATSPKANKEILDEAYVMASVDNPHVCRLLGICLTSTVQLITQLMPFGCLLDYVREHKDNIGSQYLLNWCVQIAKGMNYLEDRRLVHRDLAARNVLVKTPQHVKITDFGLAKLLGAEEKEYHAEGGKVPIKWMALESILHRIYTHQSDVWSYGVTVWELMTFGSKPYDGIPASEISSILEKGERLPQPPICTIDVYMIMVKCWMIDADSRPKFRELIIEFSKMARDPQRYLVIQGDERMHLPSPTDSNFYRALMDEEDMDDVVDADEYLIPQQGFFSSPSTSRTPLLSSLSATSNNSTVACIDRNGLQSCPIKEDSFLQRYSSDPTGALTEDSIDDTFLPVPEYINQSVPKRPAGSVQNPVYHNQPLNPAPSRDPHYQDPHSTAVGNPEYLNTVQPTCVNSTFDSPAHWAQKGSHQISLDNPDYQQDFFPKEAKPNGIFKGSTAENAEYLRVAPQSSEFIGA
Method: as §1

Chain of Epidermal growth factor receptor [T790M,L858R] (P00533 25-1210 T790M/L858R limits assumed): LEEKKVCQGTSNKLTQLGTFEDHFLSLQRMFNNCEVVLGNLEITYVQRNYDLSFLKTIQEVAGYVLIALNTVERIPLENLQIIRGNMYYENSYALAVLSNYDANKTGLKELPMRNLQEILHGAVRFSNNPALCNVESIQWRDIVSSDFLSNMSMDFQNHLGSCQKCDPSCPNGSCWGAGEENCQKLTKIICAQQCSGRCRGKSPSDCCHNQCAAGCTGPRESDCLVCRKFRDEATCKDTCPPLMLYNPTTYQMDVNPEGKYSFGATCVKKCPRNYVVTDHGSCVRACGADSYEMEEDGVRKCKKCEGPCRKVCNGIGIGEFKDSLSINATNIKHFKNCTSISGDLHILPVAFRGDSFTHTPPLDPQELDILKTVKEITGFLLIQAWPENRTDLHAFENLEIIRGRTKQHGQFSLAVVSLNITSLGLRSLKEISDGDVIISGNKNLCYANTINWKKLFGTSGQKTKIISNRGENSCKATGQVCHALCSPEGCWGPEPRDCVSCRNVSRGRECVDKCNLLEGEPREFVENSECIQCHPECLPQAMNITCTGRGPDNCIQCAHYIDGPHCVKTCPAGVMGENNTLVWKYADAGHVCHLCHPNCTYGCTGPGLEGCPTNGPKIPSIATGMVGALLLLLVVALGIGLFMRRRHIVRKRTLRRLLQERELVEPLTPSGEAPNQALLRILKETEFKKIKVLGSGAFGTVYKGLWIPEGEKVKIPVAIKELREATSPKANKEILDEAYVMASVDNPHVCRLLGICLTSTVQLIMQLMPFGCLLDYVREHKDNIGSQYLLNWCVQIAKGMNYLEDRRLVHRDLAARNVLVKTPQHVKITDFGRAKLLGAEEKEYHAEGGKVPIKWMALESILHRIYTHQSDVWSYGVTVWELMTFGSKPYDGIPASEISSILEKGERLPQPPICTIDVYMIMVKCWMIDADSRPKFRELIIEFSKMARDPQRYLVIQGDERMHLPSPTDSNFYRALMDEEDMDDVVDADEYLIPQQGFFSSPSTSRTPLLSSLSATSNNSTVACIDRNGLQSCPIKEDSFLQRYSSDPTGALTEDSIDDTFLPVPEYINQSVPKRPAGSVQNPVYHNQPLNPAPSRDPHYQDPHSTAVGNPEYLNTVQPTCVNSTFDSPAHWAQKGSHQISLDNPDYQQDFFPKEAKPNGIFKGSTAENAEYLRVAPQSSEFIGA

SMILES	IC50 [1]	IC50 [2]
C=CC(=O)Nc1cc(Nc2nccc(-c3cc(F)c4nc(C)n(C(C)C)c4c3)n2)c(OC)cc1OCCN(C)C [US11111233, Example 12]	< 1 nM	–
C=CC(=O)Nc1cc(Nc2nccc(-c3cc(F)c4nc(C)n(C(C)C)c4c3)n2)c(OC)cc1N1CCOCC1 [US11111233, Example 16]	–	> 100 nM
